Molecular target: EGFR Kinase (Homo sapiens, UniProt P00533)
Assay: EGFR inhibitory activity test (HTRF kinEASE STK S1 kinase assay)
Type: biochemical
Conditions: replicate wells, read-out: IC50(nM), Inhibitory Activity of Compounds on EGFR Kinase
Protocol: In a pilot study, the compounds disclosed herein were screened for their EGFR inhibitory activity. The Cisbio Research Product HTRF kinEASE STK S1 kinase assay/inhibitor screening Kit, can detect the generation of the phosphorylated substrate. Kinase, biotinylated substrate and ATP were first added into buffer solution, and the phosphorylated biotinylated substrates were formed by enzyme reaction. Then, to the above solution was added europium-labeled anti-phospho-site specific antibodies and XL665-labeled avidin. The Specific combinations of antibody with antigen, and biotin with avidin, bring the europium and XL665 closer together and resonance energy transferred. The signals at 620 nm and 665 nm were detected, and the activity of the kinase was evaluated by the ratio of the two signals value.

EGFR Kinase, sequence (P00533 25-1210): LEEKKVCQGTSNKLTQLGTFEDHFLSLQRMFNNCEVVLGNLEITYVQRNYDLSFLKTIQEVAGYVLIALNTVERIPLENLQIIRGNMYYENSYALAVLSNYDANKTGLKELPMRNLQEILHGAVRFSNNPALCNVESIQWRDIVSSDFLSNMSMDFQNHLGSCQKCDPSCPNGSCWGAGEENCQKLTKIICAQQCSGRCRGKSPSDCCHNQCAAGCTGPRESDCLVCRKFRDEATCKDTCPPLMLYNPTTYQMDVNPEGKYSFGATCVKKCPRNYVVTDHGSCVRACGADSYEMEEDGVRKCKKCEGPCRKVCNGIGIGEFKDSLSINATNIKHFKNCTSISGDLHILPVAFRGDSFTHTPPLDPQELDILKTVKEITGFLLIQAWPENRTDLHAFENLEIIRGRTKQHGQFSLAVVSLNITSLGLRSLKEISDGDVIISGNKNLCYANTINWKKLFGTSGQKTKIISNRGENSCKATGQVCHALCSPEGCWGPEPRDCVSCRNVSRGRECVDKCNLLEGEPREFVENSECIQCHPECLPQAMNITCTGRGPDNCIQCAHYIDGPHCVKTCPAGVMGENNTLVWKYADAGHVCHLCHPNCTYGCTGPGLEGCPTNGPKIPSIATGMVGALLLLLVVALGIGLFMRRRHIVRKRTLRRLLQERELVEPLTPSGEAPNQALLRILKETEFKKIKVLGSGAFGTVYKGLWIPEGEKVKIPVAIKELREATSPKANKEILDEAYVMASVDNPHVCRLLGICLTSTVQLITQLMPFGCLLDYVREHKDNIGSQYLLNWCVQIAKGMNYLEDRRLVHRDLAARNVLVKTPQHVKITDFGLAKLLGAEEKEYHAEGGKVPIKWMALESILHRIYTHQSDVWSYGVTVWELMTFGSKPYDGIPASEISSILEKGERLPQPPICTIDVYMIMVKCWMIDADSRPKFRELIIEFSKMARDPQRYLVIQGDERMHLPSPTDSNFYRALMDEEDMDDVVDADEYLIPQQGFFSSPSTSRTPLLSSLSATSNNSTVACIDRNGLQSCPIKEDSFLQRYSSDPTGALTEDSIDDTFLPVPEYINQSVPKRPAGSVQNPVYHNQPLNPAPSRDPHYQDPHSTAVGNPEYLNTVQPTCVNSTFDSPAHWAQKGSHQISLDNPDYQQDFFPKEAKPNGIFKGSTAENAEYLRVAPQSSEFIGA

IC50 [nM] | Structure (SMILES)
0.001 to 0.1 | COc1cc2ncnc(Nc3ccc(F)c(Cl)c3)c2cc1OCCCN1CCc2noc(C)c2C1 [Example 24, N-(3-chloro-4-fluorophenyl)-7-methoxy-6-(3-(3-methyl-6,7-dihydroisoxazolo[4,3-c]pyridin-5(4H)-yl)propoxy)quinazolin-4-amine]
0.001 to 0.1 | COc1cc2ncnc(Nc3ccc(F)c(Cl)c3)c2cc1OCCCN1CCC2NCCC2C1 (centres unmarked) [Example 19, N-(3-chloro-4-fluorophenyl)-6-(3-(hexahydro-1H-pyrrolo[3,2-c]pyridin-5(6H)-yl)propoxy)-7-methoxyquinazolin-4-amine]
0.001 to 0.1 | COc1cc2ncnc(Nc3ccc(F)c(Cl)c3)c2cc1OCCCN1C[C@@H]2OCCO[C@H]2C1 [Example 40, N-(3-chloro-4-fluorophenyl)-7-methoxy-6-(3-((4aS,7aS)-tetrahydro-2H-[1,4]dioxino[2,3-c]pyrrol-6(3H)-yl)propoxy)quinazolin-4-amine]
0.101 to 1 | COc1cc2ncnc(Nc3ccc(F)c(Cl)c3)c2cc1OCCCN1CC2CN(C)CC2C1 (centres unmarked) [Example 12, N-(3-chloro-4-fluorophenyl)-7-methoxy-6-(3-(5-methylhexahydropyrrolo[3,4-c]pyrrol-2(1H)-yl)propoxy)quinazolin-4-amine]
0.001 to 0.1 | COc1cc2ncnc(Nc3ccc(F)c(Cl)c3)c2cc1OCCCN1CCC2CCNCC2C1 (centres unmarked) [Example 33, N-(3-chloro-4-fluorophenyl)-7-methoxy-6-(3-(octahydro-2,7-naphthyridin-2(1H)-yl)propoxy) quinazolin-4-amine]
0.001 to 0.1 | COc1cc2ncnc(Nc3ccc(F)c(Cl)c3)c2cc1OCCCN1CC2OCCOC2C1 (centres unmarked) [Example 6, N-(3-chloro-4-fluorophenyl)-7-methoxy-6-(3-(tetrahydro-2H-[1,4]dioxino[2,3-c]pyrrol-6(3H)-yl)propoxy)quinazolin-4-amine]
1 to 10 | COc1cc2ncnc(Nc3ccc(F)cc3)c2cc1OCCCN1CC2OCCOC2C1 (centres unmarked) [Example 7, N-(4-fluorophenyl)-7-methoxy-6-(3-(tetrahydro-2H-[1,4]dioxino[2,3-c]pyrrol-6(3H)-yl)propoxy) quinazolin-4-amine]
0.001 to 0.1 | COc1cc2ncnc(Nc3ccc(F)cc3)c2cc1OCCCN1CC2CNCC2C1 (centres unmarked) [Example 41, N-(4-fluorophenyl)-6-(3-(hexahydropyrrolo[3,4-c]pyrrol-2(1H)-yl)propoxy)-7-methoxyquinazolin-4-amine]
0.001 to 0.1 | CCN1CC2CCCN(CCCOc3cc4c(Nc5ccc(F)c(Cl)c5)ncnc4cc3OC)C2C1 (centres unmarked) [Example 29, N-(3-chloro-4-fluorophenyl)-6-(3-(6-ethyloctahydro-1H-pyrrolo[3,4-b]pyridin-1-yl)propoxy)-7-methoxyquinazolin-4-amine]
0.001 to 0.1 | COc1cc2ncnc(Nc3ccc(F)c(Cl)c3)c2cc1OCCCN1CC2CCCNC2C1 (centres unmarked) [Example 25, N-(3-chloro-4-fluorophenyl)-6-(3-(hexahydro-1H-pyrrolo[3,4-b]pyridin-6(2H)-yl)propoxy)-7-methoxyquinazolin-4-amine]
0.001 to 0.1 | COc1cc2ncnc(Nc3ccc(F)c(Cl)c3)c2cc1OCCCN1CCC2CCN(C)C2C1 (centres unmarked) [Example 18, N-(3-chloro-4-fluorophenyl)-7-methoxy-6-(3-(1-methylhexahydro-1H-pyrrolo[2,3-c]pyridin-6(2H)-yl)propoxy)quinazolin-4-amine]

— patent publication US9181277B2, “Aminoquinazoline derivatives and their salts and methods of use” (SUNSHINE LAKE PHARMA CO., LTD., priority 2011, dated 2015)
